Measurements taken from article PMC5513037, “Examining the influence of specificity ligands and ATP-competitive ligands on the overall effectiveness of bivalent kinase inhibitors” (Proteome Science, 2017).
pIC50: −log10 of the molar value.

Key:
Assay in all cases: KAM-matrix competition in K562 lysate;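 for 0.001 uM KAM: median log10 fold change of treatment over DMSO control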;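 for 0.01 uM KAM: median log10 fold change of treatment over DMSO control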;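 for 0.1 uM KAM: median log10 fold change of treatment over DMSO control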;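 for 1 uM KAM: median log10 fold change of treatment over DMSO control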;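 for 10 uM KAM: median log10 fold change of treatment over DMSO control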
Assay type in all cases: binding
[1] = molecular target: T1, WEE1 (Homo sapiens, UniProt P30291)
T1 construct: endogenous in cells; host or cells: K562
Experimental: (§1) Supplement 12953_2017_125_MOESM1_ESM.zip/MS_Supp Info.xlsx, sheet "KAM" | column: 10 uM KAM; 1 uM KAM; 0.1 uM KAM; 0.01 uM KAM; 0.001 uM KAM; RB50

[2] = molecular target: T2, VRK1 (Homo sapiens, UniProt Q99986);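 for 0.001 uM KAM: median log10 fold change of treatment over DMSO control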;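 for 0.01 uM KAM: median log10 fold change of treatment over DMSO control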;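 for 0.1 uM KAM: median log10 fold change of treatment over DMSO control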;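 for 1 uM KAM: median log10 fold change of treatment over DMSO control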;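 for 10 uM KAM: median log10 fold change of treatment over DMSO control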
T2 construct: endogenous in cells; host or cells: K562
T2 sequence (Q99986 1-396): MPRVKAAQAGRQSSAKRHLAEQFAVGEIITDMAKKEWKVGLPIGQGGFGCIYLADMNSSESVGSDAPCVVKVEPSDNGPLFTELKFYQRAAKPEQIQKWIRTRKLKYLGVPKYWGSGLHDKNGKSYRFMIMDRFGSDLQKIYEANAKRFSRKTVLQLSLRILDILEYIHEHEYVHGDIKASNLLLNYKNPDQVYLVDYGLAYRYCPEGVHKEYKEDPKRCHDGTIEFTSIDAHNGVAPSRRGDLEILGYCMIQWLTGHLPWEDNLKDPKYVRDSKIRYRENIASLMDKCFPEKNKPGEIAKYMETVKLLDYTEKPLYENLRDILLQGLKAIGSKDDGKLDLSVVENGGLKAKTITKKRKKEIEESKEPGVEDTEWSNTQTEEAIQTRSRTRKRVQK
Experimental: as §1

[3] = molecular target: T3, STK3 (Homo sapiens, UniProt Q13188)
T3 construct: endogenous in cells; host or cells: K562 cell lysate
T3 sequence (Q13188 1-491): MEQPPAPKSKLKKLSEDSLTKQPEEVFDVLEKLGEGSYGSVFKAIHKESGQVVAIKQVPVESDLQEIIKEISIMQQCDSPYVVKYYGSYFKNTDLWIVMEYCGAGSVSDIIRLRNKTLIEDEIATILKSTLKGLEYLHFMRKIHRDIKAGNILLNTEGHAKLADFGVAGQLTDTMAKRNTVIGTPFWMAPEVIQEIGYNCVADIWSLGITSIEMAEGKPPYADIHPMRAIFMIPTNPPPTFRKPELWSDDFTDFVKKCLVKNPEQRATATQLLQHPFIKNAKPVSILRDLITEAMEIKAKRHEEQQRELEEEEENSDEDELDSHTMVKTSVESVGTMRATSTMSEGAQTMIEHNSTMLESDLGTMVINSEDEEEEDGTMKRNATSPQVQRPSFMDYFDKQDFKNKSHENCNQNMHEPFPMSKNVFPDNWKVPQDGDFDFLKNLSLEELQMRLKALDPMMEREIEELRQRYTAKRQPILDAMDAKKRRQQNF
Experimental: as §1

[4] = molecular target: T4, TRIM28 (Homo sapiens, UniProt Q13263);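 for 0.001 uM KAM: median log10 fold change of treatment over DMSO control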;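 for 0.01 uM KAM: median log10 fold change of treatment over DMSO control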;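 for 0.1 uM KAM: median log10 fold change of treatment over DMSO control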;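 for 1 uM KAM: median log10 fold change of treatment over DMSO control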;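 for 10 uM KAM: median log10 fold change of treatment over DMSO control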
T4 construct: endogenous in cells; host or cells: K562
Experimental: as §1

[5] = molecular target: T5, NTRK1 (Homo sapiens, UniProt P04629)
T5 construct: endogenous in cells; host or cells: K562
Experimental: as §1

[6] = molecular target: T6, MAP2K3 (Homo sapiens, UniProt P46734);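 for 0.001 uM KAM: median log10 fold change of treatment over DMSO control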;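 for 0.01 uM KAM: median log10 fold change of treatment over DMSO control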;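 for 0.1 uM KAM: median log10 fold change of treatment over DMSO control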;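 for 1 uM KAM: median log10 fold change of treatment over DMSO control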;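 for 10 uM KAM: median log10 fold change of treatment over DMSO control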
T6 construct: endogenous in cells; host or cells: K562 cell lysate
T6 sequence (P46734 1-347): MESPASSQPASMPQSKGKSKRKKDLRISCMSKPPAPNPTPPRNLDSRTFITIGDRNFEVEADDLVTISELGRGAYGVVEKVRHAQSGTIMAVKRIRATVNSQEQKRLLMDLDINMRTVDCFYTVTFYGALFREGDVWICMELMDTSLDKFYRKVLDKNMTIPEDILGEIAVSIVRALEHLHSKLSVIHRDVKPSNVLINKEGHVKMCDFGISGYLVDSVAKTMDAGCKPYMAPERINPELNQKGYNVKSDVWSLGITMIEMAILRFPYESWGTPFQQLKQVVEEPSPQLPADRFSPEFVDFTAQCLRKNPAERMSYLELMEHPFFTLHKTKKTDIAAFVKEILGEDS
Experimental: as §1

[7] = molecular target: T7, DYRK1A (Homo sapiens, UniProt Q13627)
T7 construct: endogenous in cells; host or cells: K562
Experimental: as §1

[8] = molecular target: T8, SYK (Homo sapiens, UniProt P43405)
T8 construct: K562 cell pellets were thawed on ice and resuspended in cold Lysis buffer; endogenous in cells; host or cells: K562
Experimental: as §1

[9] = read-out: RB50 (the source's name)
[10] = KAM 0.001-10 uM, read-out: RB50 (the source's name)

T1 sequence (P30291 whole entry): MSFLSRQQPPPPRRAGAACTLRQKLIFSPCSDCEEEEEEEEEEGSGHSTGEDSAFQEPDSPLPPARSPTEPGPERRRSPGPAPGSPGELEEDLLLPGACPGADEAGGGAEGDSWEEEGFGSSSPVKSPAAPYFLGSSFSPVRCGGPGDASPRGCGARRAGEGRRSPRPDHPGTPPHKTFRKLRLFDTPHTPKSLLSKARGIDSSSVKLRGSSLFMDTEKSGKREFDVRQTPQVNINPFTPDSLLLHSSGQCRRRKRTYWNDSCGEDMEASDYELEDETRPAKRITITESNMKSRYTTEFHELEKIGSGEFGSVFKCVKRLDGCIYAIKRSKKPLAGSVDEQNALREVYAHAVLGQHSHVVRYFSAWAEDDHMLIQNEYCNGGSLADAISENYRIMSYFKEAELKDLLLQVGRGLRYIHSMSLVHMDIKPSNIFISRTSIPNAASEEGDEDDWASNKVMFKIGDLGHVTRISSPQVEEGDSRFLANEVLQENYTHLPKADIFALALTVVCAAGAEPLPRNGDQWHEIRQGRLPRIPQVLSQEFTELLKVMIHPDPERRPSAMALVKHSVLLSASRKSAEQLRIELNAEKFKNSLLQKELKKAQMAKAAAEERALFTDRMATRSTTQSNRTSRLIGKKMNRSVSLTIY
T5 sequence (P04629 33-796): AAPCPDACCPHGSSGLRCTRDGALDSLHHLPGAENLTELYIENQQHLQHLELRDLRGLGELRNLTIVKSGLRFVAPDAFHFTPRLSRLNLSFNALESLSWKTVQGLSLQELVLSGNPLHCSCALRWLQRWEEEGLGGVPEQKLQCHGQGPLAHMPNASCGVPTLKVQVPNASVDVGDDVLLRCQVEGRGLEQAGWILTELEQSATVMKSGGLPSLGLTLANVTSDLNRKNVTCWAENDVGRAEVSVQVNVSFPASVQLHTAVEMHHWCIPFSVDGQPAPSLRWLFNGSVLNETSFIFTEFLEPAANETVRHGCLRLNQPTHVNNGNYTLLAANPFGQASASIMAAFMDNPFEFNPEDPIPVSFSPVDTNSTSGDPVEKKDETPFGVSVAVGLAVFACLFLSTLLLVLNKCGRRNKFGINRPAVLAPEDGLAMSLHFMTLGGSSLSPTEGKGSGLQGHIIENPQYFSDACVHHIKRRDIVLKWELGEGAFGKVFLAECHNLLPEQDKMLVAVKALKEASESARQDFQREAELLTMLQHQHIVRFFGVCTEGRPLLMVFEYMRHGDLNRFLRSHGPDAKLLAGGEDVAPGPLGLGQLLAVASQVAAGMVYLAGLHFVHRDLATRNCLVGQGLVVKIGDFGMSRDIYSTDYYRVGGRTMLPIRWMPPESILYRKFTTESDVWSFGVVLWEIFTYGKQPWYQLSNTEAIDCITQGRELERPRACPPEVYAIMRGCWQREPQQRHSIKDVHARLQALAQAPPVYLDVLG
T4 sequence (Q13263 whole entry): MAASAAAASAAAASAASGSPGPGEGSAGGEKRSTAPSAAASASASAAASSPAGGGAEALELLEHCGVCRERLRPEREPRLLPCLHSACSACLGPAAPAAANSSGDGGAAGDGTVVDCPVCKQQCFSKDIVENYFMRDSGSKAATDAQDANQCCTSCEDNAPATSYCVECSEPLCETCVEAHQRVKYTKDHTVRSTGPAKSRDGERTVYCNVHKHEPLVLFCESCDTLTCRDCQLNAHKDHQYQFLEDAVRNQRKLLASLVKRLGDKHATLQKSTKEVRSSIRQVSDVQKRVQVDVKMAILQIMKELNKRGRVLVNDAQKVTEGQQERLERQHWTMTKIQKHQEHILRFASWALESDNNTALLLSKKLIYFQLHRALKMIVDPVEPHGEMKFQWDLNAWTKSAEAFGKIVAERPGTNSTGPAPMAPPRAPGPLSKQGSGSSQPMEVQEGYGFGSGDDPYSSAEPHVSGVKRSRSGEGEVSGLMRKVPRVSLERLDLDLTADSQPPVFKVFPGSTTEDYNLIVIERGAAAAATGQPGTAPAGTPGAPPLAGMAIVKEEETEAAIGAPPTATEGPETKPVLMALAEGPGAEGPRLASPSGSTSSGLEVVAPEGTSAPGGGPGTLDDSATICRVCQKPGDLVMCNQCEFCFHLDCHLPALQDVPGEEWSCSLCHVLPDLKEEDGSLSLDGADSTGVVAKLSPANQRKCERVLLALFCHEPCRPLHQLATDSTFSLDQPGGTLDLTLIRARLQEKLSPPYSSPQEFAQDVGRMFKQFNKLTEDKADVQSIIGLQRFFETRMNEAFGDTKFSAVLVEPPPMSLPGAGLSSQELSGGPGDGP

SMILES: N#CCc1ccc(Nc2nc(NCCCN)cc(Nc3cc(C4CC4)[nH]n3)n2)cc1 [KAM]
- median Log10 fold change ([1]; 0.001 uM KAM): -0.01698
- median Log10 fold change ([1]; 0.01 uM KAM): -0.006292
- median Log10 fold change ([1]; 0.1 uM KAM): -0.1327
- median Log10 fold change ([1]; 1 uM KAM): -0.2838
- median Log10 fold change ([1]; 10 uM KAM): -0.4489
- pIC50 [1, 9]: 5.88
- pIC50 [2, 10]: < 5.00
- 0.001 uM KAM ([2]; relative to 0 uM KAM = 0): 0.05319
- 0.01 uM KAM ([2]; relative to 0 uM KAM = 0): 0.02372
- 0.1 uM KAM ([2]; relative to 0 uM KAM = 0): 0.08305
- 1 uM KAM ([2]; relative to 0 uM KAM = 0): 0.1248
- 10 uM KAM ([2]; relative to 0 uM KAM = 0): 0.03089
- median Log10 fold change ([3]; 0.001 uM KAM): -0.01987
- median Log10 fold change ([3]; 0.01 uM KAM): -0.0374
- median Log10 fold change ([3]; 0.1 uM KAM): -0.2245
- median Log10 fold change ([3]; 1 uM KAM): -0.1979
- median Log10 fold change ([3]; 10 uM KAM): -0.3452
- pIC50 [3, 9]: 5.43
- pIC50 [4, 10]: < 5.00
- 0.001 uM KAM ([4]; relative to 0 uM KAM = 0): 0.05535
- 0.01 uM KAM ([4]; relative to 0 uM KAM = 0): 0.00293
- 0.1 uM KAM ([4]; relative to 0 uM KAM = 0): 0.1066
- 1 uM KAM ([4]; relative to 0 uM KAM = 0): 0.08268
- 10 uM KAM ([4]; relative to 0 uM KAM = 0): 0.08032
- median Log10 fold change ([5]; 0.001 uM KAM): -0.002125
- median Log10 fold change ([5]; 0.01 uM KAM): -0.003481
- median Log10 fold change ([5]; 0.1 uM KAM): -0.123
- median Log10 fold change ([5]; 1 uM KAM): -0.3463
- median Log10 fold change ([5]; 10 uM KAM): -0.5086
- pIC50 [5, 9]: 6.06
- pIC50 [6, 10]: < 5.00
- 0.001 uM KAM ([6]; relative to 0 uM KAM = 0): 0.005145
- 0.01 uM KAM ([6]; relative to 0 uM KAM = 0): -0.01205
- 0.1 uM KAM ([6]; relative to 0 uM KAM = 0): -0.0928
- 1 uM KAM ([6]; relative to 0 uM KAM = 0): -0.1584
- 10 uM KAM ([6]; relative to 0 uM KAM = 0): -0.2828
- median Log10 fold change ([7]; 0.001 uM KAM): -0.05439
- median Log10 fold change ([7]; 0.01 uM KAM): -0.0501
- median Log10 fold change ([7]; 0.1 uM KAM): -0.184
- median Log10 fold change ([7]; 1 uM KAM): -0.2641
- median Log10 fold change ([7]; 10 uM KAM): -0.4024
- pIC50 [7, 9]: 5.83
- median Log10 fold change ([8]; 0.001 uM KAM): -0.04062
- median Log10 fold change ([8]; 0.01 uM KAM): -0.03667
- median Log10 fold change ([8]; 0.1 uM KAM): -0.2061
- median Log10 fold change ([8]; 1 uM KAM): -0.3555
- median Log10 fold change ([8]; 10 uM KAM): -0.3656
- pIC50 [8, 9]: 6.15
